Results on seven compounds are retold here after US4120894A, “Sulfo-m-phenylenebis(sulfonylimino)diisophthalic acid salts” (American Cyanamid Company, priority 1977, dated 1978).

Counter-ions that a name gives are not always drawn.

One experiment has as its system whole complement. Nature of the experiment: Complement Level Reduction Test (serum of dosed guinea pigs, capillary tube assay). The settings on record: 200 mg/kg i.p. The experiment is classed as in vivo.
For another experiment, the system named is activated human C1. In words: Test, Code 026 (C1 inhibitor). The experiment is classed as biochemical. As to conditions: activity in wells, two-fold serial dilution assay; higher well number indicates higher activity. The text has this:
(§1) An active inhibitor protects C2 C1 and C4; (ii) Test, Code 035 (C3-C9 inhibitor) -- This test determines the ability of thee late components of human complement (C3-C9) to lyse EAC 142 in the presence of appropriate dilutions of the test compound. An active inhibitor protects EAC 142 from lysis by human C3-C9; (iii) Test, Code 036 (C-Shunt inhibitor) -- In this test human erythrocytes rendered fragile are lysed in autologous serum via the shunt pathway activated by cobra venom factor in the present of appropriate dilutions of the test compound. Inhibition of the shunt pathway results in failure of lysis; (iv) Forssman Vasculitis Test -- Here, the well known complement dependent lesion, Forssman vasculitis, is produced in guinea pigs by intradermal injection of rabbit anti-Forssman antiserum. […]

The test system of another experiment is shunt pathway. Nature of the experiment: Test, Code 036 (C-Shunt inhibitor), lysis of human erythrocytes in autologous serum via shunt pathway activated by cobra venom factor. It counts as cell-based. As to conditions: activity in wells, two-fold serial dilution assay; higher well number indicates higher activity.
From the text: as §1

The subject of another experiment is complement system. The settings on record: literature report; cited from earlier work.
Experiment [1] deals with hereditary angioneurotic edema. As to conditions: literature report; cited from earlier work.
The next experiment has as its system human serum complement. The settings on record: in vitro and in vivo, judged by reduction in total hemolytic complement activity; cited from earlier work.

As for `O=C(O)c1cc(NS(=O)(=O)c2cc(S(=O)(=O)O)cc(S(=O)(=O)Nc3cc(C(=O)O)cc(C(=O)O)c3)c2)cc(C(=O)O)c1` [5,5'[5-Sulfo-m-phenylenebis(sulfonylimino)]diisophathalic acid sodium salt, compound with ethanol (1:1)], the “In Vivo Activity (Guinea Pig) % Inhibition, Intraperitoneal, 30 minutes” value in the experiment with whole complement (30 min) is -44%. Further, the “In Vivo Activity (Guinea Pig) % Inhibition, Intraperitoneal, 60 minutes” value in the experiment on whole complement (60 min) is given as -42%. The “In Vivo Activity (Guinea Pig) % Inhibition, Intraperitoneal, 120 minutes” value with whole complement (120 min) was -49%. Also, the “C1 026 Wells” value in the experiment on activated human C1 was “+4 Wells”. In the experiment with shunt pathway, the “Shunt Inhibition 036 Wells” value is on record as “+1 Wells”.

For the compound `Cc1ccc(C(=O)Nc2ccc(S(=O)(=O)O)c3cc(S(=O)(=O)O)cc(S(=O)(=O)O)c23)cc1NC(=O)c1cccc(NC(=O)Nc2cccc(C(=O)Nc3cc(C(=O)Nc4ccc(S(=O)(=O)O)c5cc(S(=O)(=O)O)cc(S(=O)(=O)O)c45)ccc3C)c2)c1` [Suramin], the “anticomplementary effect / complement inhibition” value with complement system is given as “competitive inhibitor of the complement system”. Besides, the “treatment of hereditary angioneurotic edema” value (shortened to “treatment”) in experiment [1] is reported as “used with success”. For `Nc1ccc2cc(S(=O)(=O)O)cc(O)c2c1N=Nc1ccc(NC(=O)Nc2ccc(N=Nc3c(N)ccc4cc(S(=O)(=O)O)cc(O)c34)c(S(=O)(=O)O)c2)cc1S(=O)(=O)O` [chlorazol fast pink, 3,3'-ureylenebis-[6-(2-amino-8-hydroxy-6-sulfo-1-naphthylazo)]benzenesulfonic acid, tetrasodium salt], the “anticomplementary effect / complement inhibition” value in the experiment on complement system was “anticomplementary effect”. In the case of `NCCCCCC(=O)O` [epsilon-aminocaproic acid], the “treatment” value in experiment [1] was “used with success”. Consider `NC[C@H]1CC[C@H](C(=O)O)CC1` [tranexamic acid], for which the “treatment” value in experiment [1] is given as “used with success”. Regarding heparin, the “anticomplementary effect / complement inhibition” value with complement system was “anticomplementary effect”.

Regarding pentosan-poly-sulfoester, the “anticomplementary activity on human serum” value in the experiment on human serum complement is “anticomplementary activity on human serum both in vitro and in vivo”.
